Measurements as given in US8822462B2, “Subunit selective NMDA receptor potentiators for the treatment of neurological conditions” (Emory University, priority 2009, dated 2014).

Legend:
[1] = system: native NMDA receptor responses in subthalamic neurons; assay: Patch clamp recording from slices of subthalamic nuclei, pressure-applied NMDA/glycine; type: cell-based
NR1/NR2C [2] = biological target: T1, NR1/NR2C (Homo sapiens, UniProt Q05586+Q14957); assay: Two electrode voltage clamp, Xenopus laevis oocytes expressing NR1/NR2C; type: cell-based; settings: for IC50: fitted to composite concentration-effect data, read-out: 2C IC50; for Emax: maximal effect of fit, read-out: 2C Max; for activity at 100 µM: read-out: 2C percent effect at the maximum tested concentration
T1 construct: expressed in transfected cells; host or cells: Xenopus laevis oocytes
Source text: (§1) Values are mean+SEM (n=14-20). […] C is the closed level; broken line is the open level.
(§2) The Hill slope at both receptors for all analogues was greater than 1, consistent with a cooperative effect of binding at two sites.
(§3) In the table above, potency is expressed as fitted EC50 value to average composite concentration-effect data constructed from current responses recorded under two electrode voltage clamp from Xenopus laevis oocytes expressing either NR1/NR2A, B, C, or D, GluR1, or GluR6. No effect means less than 20% change in response amplitude at 30 μM of drug.

NR1/NR2C [3] = biological target: T2, NR1/NR2C (Homo sapiens, UniProt Q14957); assay: as above; type: cell-based
T2 construct: expressed in transfected cells; host or cells: Xenopus laevis oocytes
Source text: as §1, §2, §3

NR1/NR2A = biological target: T3, NR1/NR2A (Homo sapiens, UniProt Q12879); assay: Two electrode voltage clamp, Xenopus laevis oocytes expressing NR1/NR2A; type: cell-based; settings: at 100 μM; read-out: 2A percent effect at the maximum tested concentration
T3 construct: expressed in transfected cells; host or cells: Xenopus laevis oocytes
Protocol: as §3

NR1/NR2B = biological target: T4, NR1/NR2B (Homo sapiens, UniProt Q05586+Q13224); assay: Two electrode voltage clamp, Xenopus laevis oocytes expressing NR1/NR2B; type: cell-based; settings: for activity at 100 µM: read-out: 2B percent effect at the maximum tested concentration; for IC50: fitted to composite concentration-effect data, Max 0 = inhibition, read-out: 2B IC50
T4 construct: expressed in transfected cells; host or cells: Xenopus laevis oocytes
Protocol: as §3

NR1/NR2D [4] = biological target: NR1/NR2D (Homo sapiens, UniProt O15399+Q05586); assay: Two electrode voltage clamp, Xenopus laevis oocytes expressing NR1/NR2D; settings: for Emax: read-out: 2D Max; for activity at 100 µM: read-out: 2D percent effect at the maximum tested concentration, at 100 μM
NR1/NR2D [5] = biological target: T5, NR1/NR2D (Homo sapiens, UniProt O15399); assay: as above
Target sequence in this assay (O15399 28-1336, species assumed, other chains not shown): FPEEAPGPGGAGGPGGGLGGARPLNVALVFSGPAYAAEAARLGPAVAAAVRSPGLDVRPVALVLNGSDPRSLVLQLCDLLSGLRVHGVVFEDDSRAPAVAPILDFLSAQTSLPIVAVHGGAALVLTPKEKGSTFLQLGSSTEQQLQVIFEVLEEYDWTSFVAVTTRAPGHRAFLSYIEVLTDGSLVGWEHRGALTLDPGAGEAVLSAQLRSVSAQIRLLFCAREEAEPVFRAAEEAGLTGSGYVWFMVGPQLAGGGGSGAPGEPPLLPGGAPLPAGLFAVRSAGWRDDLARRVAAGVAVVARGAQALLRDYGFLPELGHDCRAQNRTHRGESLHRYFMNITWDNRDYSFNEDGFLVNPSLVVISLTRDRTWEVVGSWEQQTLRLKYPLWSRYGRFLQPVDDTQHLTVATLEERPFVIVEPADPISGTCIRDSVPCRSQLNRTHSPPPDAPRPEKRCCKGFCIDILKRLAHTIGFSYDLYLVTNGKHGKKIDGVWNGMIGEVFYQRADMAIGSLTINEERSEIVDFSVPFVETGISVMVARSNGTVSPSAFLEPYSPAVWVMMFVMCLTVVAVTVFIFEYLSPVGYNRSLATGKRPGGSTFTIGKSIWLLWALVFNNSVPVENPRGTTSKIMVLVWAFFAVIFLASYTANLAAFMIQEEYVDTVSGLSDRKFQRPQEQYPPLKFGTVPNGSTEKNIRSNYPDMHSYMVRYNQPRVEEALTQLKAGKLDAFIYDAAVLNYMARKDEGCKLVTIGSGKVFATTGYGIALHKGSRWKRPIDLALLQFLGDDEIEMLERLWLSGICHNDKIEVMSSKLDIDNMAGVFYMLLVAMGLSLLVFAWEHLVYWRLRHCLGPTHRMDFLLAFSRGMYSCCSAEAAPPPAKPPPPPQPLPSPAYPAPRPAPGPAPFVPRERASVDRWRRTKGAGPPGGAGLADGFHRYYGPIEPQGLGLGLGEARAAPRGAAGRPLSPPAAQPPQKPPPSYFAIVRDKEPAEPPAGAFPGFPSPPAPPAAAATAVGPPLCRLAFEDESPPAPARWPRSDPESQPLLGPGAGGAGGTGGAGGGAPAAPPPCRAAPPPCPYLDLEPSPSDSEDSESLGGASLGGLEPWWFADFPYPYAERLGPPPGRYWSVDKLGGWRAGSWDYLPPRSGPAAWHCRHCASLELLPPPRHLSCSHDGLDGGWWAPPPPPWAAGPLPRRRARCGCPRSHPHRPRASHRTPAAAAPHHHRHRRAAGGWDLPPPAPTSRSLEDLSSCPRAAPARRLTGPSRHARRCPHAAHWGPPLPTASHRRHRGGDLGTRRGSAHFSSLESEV

NR1/NR2D [6] = biological target: T5, NR1/NR2D; assay: Single channel currents in excised outside-out patches; type: cell-based; design: expressed in transfected cells
Source text: as §1
Target sequence in this assay (O15399 28-1336, other chains not shown): as the sequence (O15399 28-1336, species assumed, other chains not shown) above
Our initial studies varying the compound structure confirm that there are strict requirements for the position and type of substituent on the isoquinoline backbone (see Table 3).

[7] = system: recombinant NMDA receptors; assay: Voltage and pH dependence of potentiation of recombinant NMDA receptors; type: cell-based
Source text: FIG. 2A illustrates the subunit-selectivity with which the compounds of Formula A, including a specific compound herein referred to as DIQ-1180, acts on recombinant NMDA receptors. The structure of DIQ-1180 is shown below.
as §2

T1 sequence (Q14957 20-1233, species assumed, other chains not shown): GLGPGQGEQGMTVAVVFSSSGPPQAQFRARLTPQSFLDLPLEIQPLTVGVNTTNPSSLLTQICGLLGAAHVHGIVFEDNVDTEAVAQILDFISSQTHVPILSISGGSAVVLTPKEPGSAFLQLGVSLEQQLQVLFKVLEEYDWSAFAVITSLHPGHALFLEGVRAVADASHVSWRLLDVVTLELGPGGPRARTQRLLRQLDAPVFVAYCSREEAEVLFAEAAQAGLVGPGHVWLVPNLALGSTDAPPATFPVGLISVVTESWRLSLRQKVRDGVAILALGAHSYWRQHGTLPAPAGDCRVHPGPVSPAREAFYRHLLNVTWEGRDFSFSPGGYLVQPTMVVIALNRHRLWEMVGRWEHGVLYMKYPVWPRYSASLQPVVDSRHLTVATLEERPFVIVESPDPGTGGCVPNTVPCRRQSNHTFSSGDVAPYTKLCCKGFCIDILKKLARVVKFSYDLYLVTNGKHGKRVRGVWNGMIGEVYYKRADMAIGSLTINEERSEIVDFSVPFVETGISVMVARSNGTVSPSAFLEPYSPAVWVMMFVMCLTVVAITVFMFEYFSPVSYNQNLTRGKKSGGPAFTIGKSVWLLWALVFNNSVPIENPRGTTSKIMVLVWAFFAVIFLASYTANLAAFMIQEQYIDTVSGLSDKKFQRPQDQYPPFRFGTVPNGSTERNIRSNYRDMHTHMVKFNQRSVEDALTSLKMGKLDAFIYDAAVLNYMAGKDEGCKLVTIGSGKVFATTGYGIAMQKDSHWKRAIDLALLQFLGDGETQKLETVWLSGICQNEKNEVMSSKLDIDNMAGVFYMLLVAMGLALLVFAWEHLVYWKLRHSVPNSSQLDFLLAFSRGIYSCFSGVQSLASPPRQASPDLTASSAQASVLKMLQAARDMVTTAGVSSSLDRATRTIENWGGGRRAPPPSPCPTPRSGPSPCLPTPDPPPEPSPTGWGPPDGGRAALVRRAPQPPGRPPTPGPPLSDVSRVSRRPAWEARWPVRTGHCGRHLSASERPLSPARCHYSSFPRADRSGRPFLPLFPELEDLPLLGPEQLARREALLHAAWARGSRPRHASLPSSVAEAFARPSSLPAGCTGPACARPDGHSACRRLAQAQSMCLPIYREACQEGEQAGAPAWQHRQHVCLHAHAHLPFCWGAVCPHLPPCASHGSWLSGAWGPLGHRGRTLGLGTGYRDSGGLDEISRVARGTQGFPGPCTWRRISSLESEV
Sequence of NR1/NR2D (Homo sapiens, UniProt O15399+Q05586) (O15399 28-1336, species assumed, other chains not shown): as the sequence (O15399 28-1336, species assumed, other chains not shown) above
T4 sequence (Q13224 27-1484, species assumed, other chains not shown): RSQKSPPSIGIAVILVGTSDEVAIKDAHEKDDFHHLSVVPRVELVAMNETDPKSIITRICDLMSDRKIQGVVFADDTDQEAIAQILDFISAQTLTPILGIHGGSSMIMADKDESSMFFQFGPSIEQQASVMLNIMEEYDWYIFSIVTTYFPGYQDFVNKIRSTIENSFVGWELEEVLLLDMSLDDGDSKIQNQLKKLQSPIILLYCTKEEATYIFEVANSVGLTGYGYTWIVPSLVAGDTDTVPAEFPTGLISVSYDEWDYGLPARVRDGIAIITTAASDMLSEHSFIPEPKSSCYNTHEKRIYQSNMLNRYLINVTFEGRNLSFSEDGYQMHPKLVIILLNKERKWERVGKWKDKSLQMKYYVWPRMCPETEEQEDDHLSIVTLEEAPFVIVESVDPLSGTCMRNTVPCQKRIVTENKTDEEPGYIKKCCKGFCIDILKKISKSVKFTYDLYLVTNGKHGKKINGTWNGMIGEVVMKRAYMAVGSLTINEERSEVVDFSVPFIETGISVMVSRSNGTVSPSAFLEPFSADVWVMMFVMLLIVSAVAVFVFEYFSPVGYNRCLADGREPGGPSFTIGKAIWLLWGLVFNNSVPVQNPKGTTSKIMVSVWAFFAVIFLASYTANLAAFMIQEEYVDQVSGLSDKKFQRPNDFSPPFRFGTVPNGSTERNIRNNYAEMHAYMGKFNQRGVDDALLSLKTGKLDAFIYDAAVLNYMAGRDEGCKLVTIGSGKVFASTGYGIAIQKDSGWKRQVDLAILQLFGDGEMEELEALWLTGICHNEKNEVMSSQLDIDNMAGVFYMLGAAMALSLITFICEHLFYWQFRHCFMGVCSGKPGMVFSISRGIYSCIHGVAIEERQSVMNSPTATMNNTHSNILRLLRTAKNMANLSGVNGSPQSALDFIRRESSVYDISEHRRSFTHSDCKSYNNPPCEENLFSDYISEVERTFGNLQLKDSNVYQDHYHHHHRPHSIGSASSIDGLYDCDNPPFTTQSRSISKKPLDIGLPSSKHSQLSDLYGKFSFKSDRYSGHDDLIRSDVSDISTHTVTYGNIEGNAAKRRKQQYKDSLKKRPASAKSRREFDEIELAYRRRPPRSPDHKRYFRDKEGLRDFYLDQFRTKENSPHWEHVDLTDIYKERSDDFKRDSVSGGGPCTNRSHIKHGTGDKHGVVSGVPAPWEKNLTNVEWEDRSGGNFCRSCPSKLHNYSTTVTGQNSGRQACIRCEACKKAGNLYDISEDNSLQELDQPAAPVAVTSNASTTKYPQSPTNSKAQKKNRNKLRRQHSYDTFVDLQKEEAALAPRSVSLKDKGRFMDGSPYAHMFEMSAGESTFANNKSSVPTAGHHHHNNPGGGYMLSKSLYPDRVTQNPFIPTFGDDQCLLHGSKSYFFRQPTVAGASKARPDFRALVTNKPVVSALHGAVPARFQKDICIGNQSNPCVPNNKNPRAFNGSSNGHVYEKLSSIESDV
T2 sequence (Q14957 20-1233, species assumed, other chains not shown): as the sequence (Q14957 20-1233, species assumed, other chains not shown) above

| activity at 100 µM (NR1/NR2A) [%] | activity at 100 µM (NR1/NR2B) [%] | activity at 100 µM (NR1/NR2C [2]) [%] | activity at 100 µM (NR1/NR2D [4]) [%] | Compound | further results |
| --- | --- | --- | --- | --- | --- |
|  |  |  |  | NC(CCCP(=O)(O)O)C(=O)O (racemic) [DL-APV, reference compound] | current response to pressure-applied NMDA/glycine ([1]; 100 μM): blocked |
|  |  |  |  | CSC1=NCCN1C(=O)c1ccc2ccccc2c1 [compound 1397] | 2C percent effect at the maximum tested concentration (NR1/NR2C [3]; at 100 μM): 98% at 100 μM; 2D percent effect at the maximum tested concentration (NR1/NR2D [5]; at 100 μM): 87% at 100 μM |
| 99 | 96 | 84 | 89 | CCN1CC(C(O)Nc2ccc(OC)cc2OC)c2cc(OC)c(OC)cc2C1=O (centres unmarked) [compound 1439] |  |
| 123 | 90 | 71 | 82 | COc1ccc(NC(O)C2CN(C(C)C)C(=O)c3cc(OC)c(OC)cc32)c(OC)c1 (centres unmarked) [compound 1440] |  |
| 81 |  | 78 | 86 | O=C(O)c1c(NC(=O)c2cccc3ccccc23)sc2c1CCC2 [compound 1441] | IC50 (NR1/NR2B): 43 µM |
| 91 | 68 | 102 | 111 | COC(=O)c1ccc(OCC2c3cc(OC)c(OC)cc3CCN2C(=O)c2cccc(Cl)c2)cc1 (centres unmarked) [compound 1444] |  |
| 94 | 97 | 102 | 113 | CC(C)(C)c1ccc(C(=O)Nc2ccccc2C(=O)O)cc1 [compound 1479] |  |
| 92 | 83 | 86 | 85 | CC(C)(C)c1ccc(NC(=O)C2CC=CCC2C(=O)O)cc1 (centres unmarked) [compound 1480] |  |
| 113 | 119 | 97 |  | CC1CCc2c(sc(NC(=O)c3ccc(C(C)(C)C)cc3)c2C(=O)O)C1 (centres unmarked) [compound 1481] | IC50 (NR1/NR2D [4]): 21 µM; Emax (NR1/NR2D [4]): 124% |
| 100 | 80 | 76 | 84 | COc1ccc(OCC2c3cc(OC)c(OC)cc3CCN2C(=O)c2ccccn2)cc1 (centres unmarked) [compound 1484] |  |
| 75 | 85 | 82 | 74 | COc1ccc(OCC2c3cc(OC)c(OC)cc3CCN2C(=O)c2cccnc2)cc1 (centres unmarked) [compound 1485] |  |
| 89 | 71 | 69 | 79 | COc1ccc(OCC2c3cc(OC)c(OC)cc3CCN2S(=O)(=O)c2ccccc2)cc1 (centres unmarked) [compound 1487] |  |
| 98 | 83 | 82 | 80 | CC(C)c1ccc(C(=O)Nc2sccc2C(=O)O)cc1 [compound 1488] |  |
| 95 | 78 | 83 | 76 | CCc1ccc(C(=O)Nc2sccc2C(=O)O)cc1 [compound 1489] |  |

| Compound | activity at 100 µM (NR1/NR2A) [%] | activity at 100 µM (NR1/NR2B) [%] | activity at 100 µM (NR1/NR2C [2]) [%] | activity at 100 µM (NR1/NR2D [4]) [%] | further results |
| --- | --- | --- | --- | --- | --- |
| COc1ccc(OCC2c3cc(OC)c(OC)cc3CCN2C(=O)c2ccccc2)cc1 (centres unmarked) [compound 1180] | 81 | 67 |  |  | EC50 (NR1/NR2C [2]; Example 1, read-out: EC50 value for potentiation of NR2C-containing receptors): 11 µM; IC50 (NR1/NR2C [2]): 12 µM; Emax (NR1/NR2C [2]): 145%; maximal potentiation at NR2C-containing receptors (NR1/NR2C [3]; Example 1): 181%; current response to pressure-applied NMDA/glycine ([1]; 30 μM, listed as DIQ-1180): potentiated; EC50 (NR1/NR2D [4]): 13 µM; IC50 (NR1/NR2D [4]): 11 µM; Emax (NR1/NR2D [4]): 156%; maximal potentiation at NR2D-containing receptors (NR1/NR2D [5]; Example 1): 162%; total open probability (nPo) (NR1/NR2D [6]; glutamate/glycine-activated unitary currents, increased from 0.083 without compound): 0.207; opening frequency of recombinant NR1/NR2D single channel currents (NR1/NR2D [6]; maximally effective glutamate/glycine, FIG. 2B): increased the opening frequency; opening frequency (NR1/NR2D [6]; reversed by washout): 178 % of control; voltage dependence of potentiating actions ([7]; n=7): voltage-independent; pH dependence of potentiating actions ([7]; n=10-16): pH-independent |
| CC(C)(C)c1ccc(C(=O)NC2=C(C(=O)O)C3CCCCCC3S2)cc1 (centres unmarked) [compound 1482] | 97 | 116 |  |  | IC50 (NR1/NR2C [2]): 19 µM; Emax (NR1/NR2C [2]): 127%; IC50 (NR1/NR2D [4]): 16 µM; Emax (NR1/NR2D [4]): 170% |
| COc1ccc(OCC2c3cc(OC)c(OC)cc3CCN2C(=O)c2cccs2)cc1 (centres unmarked) [compound 1486] | 78 | 88 |  |  | IC50 (NR1/NR2C [2]): 9 µM; Emax (NR1/NR2C [2]): 131%; IC50 (NR1/NR2D [4]): 6 µM; Emax (NR1/NR2D [4]): 112% |
| CC(C)(C)c1ccc(CSc2nc(N)cc(O)n2)cc1 [compound 1563] | 91 |  |  |  | IC50 (NR1/NR2C [2]): 39 µM; Emax (NR1/NR2C [2]): 424%; IC50 (NR1/NR2B): 24 µM; IC50 (NR1/NR2D [4]): 68 µM; Emax (NR1/NR2D [4]): 614% |
